{"source": "patent US11179450B2", "about": "“Long chain antigen containing interepitope sequence that promotes antigen presentation to T cells” (MIE UNIVERSITY, priority 2013, dated 2021)", "type_in_all_cases": "in vivo, BALB/c mice", "key": {"[1]": {"test_system": "CD8+ T cells specific to MA p265, NY p81 and mERK2 9m", "test": "Specific CD8+ T cell induction by CHP/long chain peptide vaccines in mice, intracellular cytokine staining of spleen cells", "settings": "for induction of specific CD8+ T cells corresponding to all three types of epitopes: FIG. 1, MEN antigens complexed with CHP, subcutaneous, CpG oligo DNA adjuvant, spleen cells one week after final administration", "description": "Long chain peptide antigens MEN, all containing three types of mouse CD8+ T cell epitope sequences (MA p265 (Sequence No. 27), NY p81 (Sequence No. 29), and mERK2 9m (Sequence No. 28)), were synthesized. The interepitope sequences between the respective epitopes were respectively six consecutive tyrosines (Y6) (Sequence No. 1), six consecutive glycines (G6) (Sequence No. 2), six consecutive prolines (P6) (Sequence No. 3), or six consecutive threonines (T6) (Sequence No. 4). Each long chain peptide antigen was complexed with cholesterol-modified pullulan (CHP), which is a type of delivery system, and administered as a vaccine to a mouse. In the process of administration, CpG oligo DNA was coadministered as an adjuvant. Spleen cells were collected one week after the final administration and the frequencies of CD8+ T cells specific to the respective epitope sequences were measured by an intracellular cytokine staining method.\nLong chain peptide antigens NME, all containing three types of mouse CD8+ T cell epitope sequences (MA p265 (Sequence No. 27), NY p81 (Sequence No. 29), and mERK2 9m (Sequence No. 28)), were synthesized. The antigens differ from the MEN sequences shown in FIG. 1 in the order of the three types of epitopes. The interepitope sequences between the respective epitopes were respectively six consecutive tyrosines (Y6) (Sequence No. 5), six consecutive glycines (G6) (Sequence No. 6), or six consecutive prolines (P6) (Sequence No. 7). Vaccines containing the respective long chain peptide antigens were administered to mice in the same manner as in FIG. 1 and the frequencies of CD8+ T cells specific to the respective epitope sequences were measured by the intracellular cytokine staining method.\n(§1) Long chain peptide antigens MEN, ENM, and NME, all containing three types of mouse CD8+ T cell epitope sequences (MA p265 (Sequence No. 27), NY p81 (Sequence No. 29), and mERK2 9m (Sequence No. 28)), were synthesized. MEN, ENM, and MEN differ in the order of the three types of epitopes. The interepitope sequences between the respective epitopes were each six consecutive tyrosines (Y6) (Sequence Nos. 1, 5 and 8). Vaccines containing the respective long chain peptide antigens were administered to mice in the same manner as in FIG. 1 and the frequencies of CD8+ T cells specific to the respective epitope sequences were measured by the intracellular cytokine staining method.\nEach long chain peptide was dissolved in dimethyl sulfoxide (DMSO) at a concentration of 10 mg/mL. CHP was dissolved in 6 M urea-containing phosphate buffered saline (PBS) at a concentration of 10 mg/mL 1 mL (10 mg) of the long chain peptide solution and 20 mL (200 mg) of the CHP solution were mixed and left to stand at room temperature overnight in a dark place. The liquid mixture was transferred into a dialysis membrane (molecular weight cutoff: 3,500; Thermo Fisher Scientific, Inc.) and dialyzed for 2 hours to overnight at 4° C. against 0.6 M urea-containing PBS of a volume ratio of not less than 100 times as the dialysis outer solution. Dialysis was then performed for 2 hours to overnight at 4° C. against 0.06 M urea-containing PBS of a volume ratio of not less than 100 times as the dialysis outer solution. Dialysis was performed again for 2 hours to overnight at 4° C. against PBS of a volume ratio of not less than 100 times as the dialysis outer solution. The dialyzed inner solution was collected, filtered through a filtration sterilization filter of 0.45 μm or 0.22 μm pore size, and thereafter the UV absorption at 280 nm was measured to determine the final concentration of the long chain peptide from its molecular extinction coefficient.\nEach CHP/long chain peptide complex as the vaccine and the CpG oligo DNA as the adjuvant were administered at the same time to a mouse. Administration was performed by subcutaneous injection on the back of the mouse. […]"}, "[2]": {"test_system": "mERK2 9m specific CD8+ T cells", "test": "Specific CD8+ T cell induction in mice, intracellular cytokine staining (mERK2 9m epitope)", "settings": "FIG. 6; comparing one to six tyrosines", "protocol": "as §1, with “MEN,” for “MEN, ENM, and NME,”, “synthesized.” for “synthesized. MEN, ENM, and MEN differ in the order of the three types of epitopes.”, “one to” for “each”, “tyrosines” for “tyrosines (Y6)”, “1” for “1, 5”, “9-12).” for “8).”\nas §1, with “MEN,” for “MEN, ENM, and NME,”, “synthesized.” for “synthesized. MEN, ENM, and MEN differ in the order of the three types of epitopes.”, “five to ten” for “each six”, “tyrosines” for “tyrosines (Y6)”, “1” for “1, 5”, “13-15).” for “8).”\nEach CHP/long chain peptide complex as the vaccine and the CpG oligo DNA as the adjuvant were administered at the same time to a mouse. Administration was performed by subcutaneous injection on the back of the mouse. As the dose, the CHP/long chain peptide complex was administered at 0.05 to 0.1 mg equivalent of long chain peptide per administration. The CpG oligo DNA was administered at 0.05 mg per administration. One week after the final administration, spleen cells were separated by the following procedure from each vaccine-administered mouse. The spleen was isolated from the mouse and removed of blood by rinsing with RPMI1640 medium. After the spleen was triturated using a glass slide, the released cells were collected in RPMI1640 medium. After centrifuging (400×g, 5 minutes, 4° C.), the supernatant was removed and the cells were treated for 1 minute by adding 2 mL of ACK solution. […]"}, "[3]": {"test_system": "mouse fibrosarcoma cell line CMS5a", "test": "Mouse tumor growth test", "settings": "FIG. 2; single dose of vaccine with CpG oligo DNA before subcutaneous CMS5a implantation (prophylactic condition); Student's t test", "description": "Long chain peptide antigens MEN, all containing three types of mouse CD8+ T cell epitope sequences (MA p265 (Sequence No. 27), NY p81 (Sequence No. 29), and mERK2 9m (Sequence No. 28)), were synthesized. The interepitope sequences between the respective epitopes were respectively six consecutive tyrosines (Y6) (Sequence No. 1), six consecutive glycines (G6) (Sequence No. 2), or six consecutive prolines (P6) (Sequence No. 3). Each long chain peptide antigen was complexed with CHP and administered in a single dose as a vaccine to a mouse. As a control, a short chain peptide vaccine, constituted of just the mERK2 9m peptide, was mixed with Freund's incomplete adjuvant and administered. In the process of administration, CpG oligo DNA was coadministered as an adjuvant. On the day after administration, a mouse fibrosarcoma cell line CMS5a, expressing mERK2 as a tumor antigen and presenting the CD8+ T cell epitope mERK2 9m derived from the same antigen, was implanted subcutaneously and its growth was recorded over time.\nA subcloned CMS5a cell line, obtained from a CMS5 cell line isolated from fibrosarcoma induced by administering 3-methylcholanthrene to a BALB/c mouse, expresses mutant ERK2 (mERK2) as a tumor antigen and presents a CD8^+ T cell epitope derived from the mERK2. The CMS5a cell line cultured in a T75 flask (Nunc) was detached using PBS containing 0.5% trypsin and collected in RPMI1640 medium containing 10% FBS. After centrifuging (400×g, 5 minutes, 4° C.), the supernatant was removed, and the cells were rinsed twice with RPMI1640 medium, thereafter suspended in RPMI1640 medium at a concentration of 1×10^6 cells/100 μL, and implanted subcutaneously in BALB/c mice at a dose of 100 μL/individual. The CHP/long chain peptide complexes and the adjuvant were administered 7 days before tumor implantation (prophylactic condition). After tumor implantation, the length and breadth of the tumor were measured and the product thereof was recorded as tumor size. The data in the tumor growth test were compared by Student's t test using Microsoft® Excel® (Microsoft Corporation)."}, "[4]": {"test_system": "F4/80+ cells (macrophages)", "test": "Uptake of FAM-labeled long chain peptide antigens in individual animals, regional lymph node macrophages", "settings": "FIG. 9, complexed with CHP, subcutaneous, 16 hours after administration", "protocol": "The same FAM-labeled long chain peptide antigens as those in FIG. 8 were complexed with CHP and administered subcutaneously to mice. After 16 hours, cells were collected from a regional lymph node of the administration site, and the fluorescence uptakes into dendritic cells and mouse macrophages were measured by flow cytometry with the P4 fraction in the figure being deemed to correspond to the dendritic cells and the P5 fraction in the figure being deemed to correspond to the macrophages.\nA test of uptake of long chain peptide antigens by antigen-presenting cells in individual animals was performed as follows. Each long chain peptide was fluorescence-labeled, complexed with a CHP nanogel, administered subcutaneously to BALB/c mice. 16 hours after administration, cells were collected from lymph nodes and after staining with the anti-CD11c antibody and the anti-F4/80 antibody, the uptake of the fluorescence-labeled long chain peptide antigens by CD11c^+ cells (dendritic cells) and F4/80^+ cells (macrophages) was analyzed by flow cytometry."}}, "data": [{"sequence": "SNPARYEFLYYYYQYIHSANVLYYYYRGPESRLL (Long chain peptide antigen, containing three types of mouse CD8+ T cell epitope sequences (MA p265, NY p81, and mERK2 9m)) [MEN(Y4)]", "values": [{"measurement": "number of tyrosines of the interepitope sequence, judged in view of the results for the three types of epitopes", "setting": "[1]; FIG. 6, comparing one to six tyrosines", "value": "satisfactory"}, {"measurement": "induction of specific CD8+ T cells, mERK2 9m (second epitope)", "setting": "[2]", "value": "highest"}]}, {"sequence": "QYIHSANVL [mERK2 9m, reference compound]", "values": [{"measurement": "growth of the tumor", "setting": "[3]", "value": "significant suppression of tumor growth was not observed"}]}, {"sequence": "SNPARYEFLGGGGGGQYIHSANVLGGGGGGRGPESRLL (Long chain peptide antigen, containing three types of mouse CD8+ T cell epitope sequences (MA p265, NY p81, and mERK2 9m)) [MEN(G6)]", "values": [{"measurement": "growth of the tumor", "setting": "[3]", "value": "significant suppression of tumor growth was not observed"}, {"measurement": "induction of specific CD8+ T cells corresponding to all three types of epitopes", "setting": "[1]", "value": "clearly weak"}, {"measurement": "fluorescence uptake into macrophages of the regional lymph node", "setting": "[4]", "value": "hardly observed"}]}, {"sequence": "SNPARYEFLPPPPPPQYIHSANVLPPPPPPRGPESRLL (Long chain peptide antigen, containing three types of mouse CD8+ T cell epitope sequences (MA p265, NY p81, and mERK2 9m)) [MEN(P6)]", "values": [{"measurement": "growth of the tumor", "setting": "[3]", "value": "significant suppression of tumor growth was not observed"}, {"measurement": "induction of specific CD8+ T cells corresponding to all three types of epitopes", "setting": "[1]", "value": "clearly weak"}, {"measurement": "fluorescence uptake into macrophages of the regional lymph node", "setting": "[4]", "value": "hardly observed"}]}]}
